“Also recorded” adds a separate entry of the source.

In one data set the test system is LMTK3. In words: Western blots of LMTK3 in BC cell lines. The data set is classed as cell-based, human. To be noted: for endogenous LMTK3 protein levels (Western blot): increasing concentrations of HSP90 inhibitor, 72 hours. (In general: A western blot detects proteins with antibodies after separation by electrophoresis.)
The next data set has as its system ERα. The data set can be described thus: Western blots of ERα in BC cell lines. It counts as cell-based, human.
In another data set the test system is HSP90. The data set can be described thus: Western blots of chaperones in BC cell lines. It counts as cell-based, human. As to conditions: increasing concentrations of C28, 48 hours.
The next data set relates to CDC37. In words: Western blots of chaperones in BC cell lines. To be noted: increasing concentrations of C28, 48 hours. It counts as cell-based, human.
The target of the next data set is human HSP90α (Homo sapiens, UniProt P07900). In words: Isothermal titration calorimetry. It counts as binding. As to conditions: 0.2 mM C28 injected into 20 μM human HSP90α. For orientation: In ITC the heat of successive injections is recorded.
The test system of a further data set is BC cells. The data set can be described thus: Cell viability assay. The data set is classed as cell-based. As to conditions: Homo sapiens, 72 h, read-out: IC50 values, growth of BC cells.
The subject of data set [1] is NCI-60 panel of tumor cell lines. In words: NCI-60 one-dose screening. The data set is classed as cell-based. To be noted: Homo sapiens, 24 h, read-out: inhibition of all cancer cell lines.
For the next data set, the system named is NCI-60 cell lines. In words: NCI-60 five-dose evaluation. It counts as cell-based, human. As to conditions: five doses.
The test system of data set [2] is BC cell lines (MCF7, T47D, MDA-MB-231). In words: Cell death and apoptosis. The data set is classed as cell-based, human. As to conditions: increasing concentrations of C28, 72 hours.
The test system of a further data set is MCF12A. The data set can be described thus: Cell death and apoptosis. The data set is classed as cell-based, human. To be noted: even at high concentrations of C28 and longer time points.
A further data set in a line: Pharmacokinetics in mice. The data set is classed as in vivo. To be noted: male, BALB/c (nude), mouse, plasma.
In a further data set the test system is MMTV-Neu mammary tumors. The data set can be described thus: MMTV-Neu transgenic mammary tumor model. It counts as in vivo, mice.
The nature of data set [3]: Histopathologic analysis of tumor sections and organs, MMTV-Neu mice. It counts as in vivo. To be noted: C28 10 mg/kg oral daily.
For a further data set, the system named is MDA-MB-231 xenografts. The data set can be described thus: MDA-MB-231 xenograft mouse model. As to conditions: C28 10 mg/kg oral daily; after 23 days. It counts as in vivo, NSG mice.
The next data set concerns the target T1, IRAK4 (Homo sapiens, UniProt Q9NWZ3).
T1 sequence (Q9NWZ3 1-460): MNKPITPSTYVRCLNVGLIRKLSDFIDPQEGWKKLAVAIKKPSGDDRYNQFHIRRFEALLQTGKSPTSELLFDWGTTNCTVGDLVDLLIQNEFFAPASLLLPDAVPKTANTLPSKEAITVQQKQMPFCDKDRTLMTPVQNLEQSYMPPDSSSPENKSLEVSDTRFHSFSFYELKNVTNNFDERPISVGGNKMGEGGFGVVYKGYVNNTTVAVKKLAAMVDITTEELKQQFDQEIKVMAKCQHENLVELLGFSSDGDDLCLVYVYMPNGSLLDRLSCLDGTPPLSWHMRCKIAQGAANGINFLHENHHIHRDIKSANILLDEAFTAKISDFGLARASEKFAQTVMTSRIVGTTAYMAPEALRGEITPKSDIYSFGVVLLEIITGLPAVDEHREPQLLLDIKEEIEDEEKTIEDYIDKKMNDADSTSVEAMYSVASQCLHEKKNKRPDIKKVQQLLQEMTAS
The data set can be described thus: Western blots of kinases in BC cell lines. To be noted: 10 μM C28, different time points.

The target in the next data set is HIPK2 (Homo sapiens, UniProt Q9H2X6). The data set can be described thus: Western blots of kinases in BC cell lines. As to conditions: 10 μM C28, different time points.
Sequence of HIPK2 (Q9H2X6 whole entry): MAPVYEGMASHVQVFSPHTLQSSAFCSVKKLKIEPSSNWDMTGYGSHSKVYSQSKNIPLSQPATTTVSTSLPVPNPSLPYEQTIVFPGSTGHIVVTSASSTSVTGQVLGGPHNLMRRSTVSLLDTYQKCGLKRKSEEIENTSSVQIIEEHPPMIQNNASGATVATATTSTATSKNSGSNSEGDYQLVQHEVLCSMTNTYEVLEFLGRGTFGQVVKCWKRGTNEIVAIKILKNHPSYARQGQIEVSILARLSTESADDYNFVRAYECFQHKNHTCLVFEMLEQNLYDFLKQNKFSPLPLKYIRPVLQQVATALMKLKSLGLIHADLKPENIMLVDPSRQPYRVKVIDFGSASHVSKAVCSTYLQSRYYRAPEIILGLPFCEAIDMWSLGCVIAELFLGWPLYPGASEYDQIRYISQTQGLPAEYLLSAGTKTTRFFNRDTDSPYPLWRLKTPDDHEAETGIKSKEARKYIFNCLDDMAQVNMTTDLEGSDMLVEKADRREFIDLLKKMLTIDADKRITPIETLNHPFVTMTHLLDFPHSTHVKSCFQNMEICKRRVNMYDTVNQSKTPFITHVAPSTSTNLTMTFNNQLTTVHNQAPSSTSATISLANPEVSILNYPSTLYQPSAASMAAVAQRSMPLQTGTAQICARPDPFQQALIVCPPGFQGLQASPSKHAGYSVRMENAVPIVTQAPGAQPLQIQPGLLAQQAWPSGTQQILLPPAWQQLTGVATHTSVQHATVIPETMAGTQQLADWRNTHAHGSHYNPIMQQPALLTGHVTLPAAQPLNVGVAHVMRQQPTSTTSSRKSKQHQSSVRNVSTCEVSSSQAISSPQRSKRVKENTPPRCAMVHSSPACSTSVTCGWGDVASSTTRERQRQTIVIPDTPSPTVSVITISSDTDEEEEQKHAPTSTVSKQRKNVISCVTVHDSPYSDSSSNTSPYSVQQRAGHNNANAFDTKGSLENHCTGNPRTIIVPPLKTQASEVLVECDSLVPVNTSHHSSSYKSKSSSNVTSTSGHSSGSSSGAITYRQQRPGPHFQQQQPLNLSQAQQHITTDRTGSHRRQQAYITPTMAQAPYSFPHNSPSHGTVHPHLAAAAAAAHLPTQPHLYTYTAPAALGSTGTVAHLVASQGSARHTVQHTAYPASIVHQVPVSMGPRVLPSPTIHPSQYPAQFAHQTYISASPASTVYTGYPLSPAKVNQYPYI
The next data set concerns HSP70. In words: Western blots of HSP70 in BC cell lines. The data set is classed as cell-based, human. To be noted: increasing concentrations of HSP90 inhibitor, 72 hours.
In data set [4] the target is T2, human CDC37 (cell division cycle 37), recombinant (human, UniProt Q16543 1-378).
T2 sequence (looked up): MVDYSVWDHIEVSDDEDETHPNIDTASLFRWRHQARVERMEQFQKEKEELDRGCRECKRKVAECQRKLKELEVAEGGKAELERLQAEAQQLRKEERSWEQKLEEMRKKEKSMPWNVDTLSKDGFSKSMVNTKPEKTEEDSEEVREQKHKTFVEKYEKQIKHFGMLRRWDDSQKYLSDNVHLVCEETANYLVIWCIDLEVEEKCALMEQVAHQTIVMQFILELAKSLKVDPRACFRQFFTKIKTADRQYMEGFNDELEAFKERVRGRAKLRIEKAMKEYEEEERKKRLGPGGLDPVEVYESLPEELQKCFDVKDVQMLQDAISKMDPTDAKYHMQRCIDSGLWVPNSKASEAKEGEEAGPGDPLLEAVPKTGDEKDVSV
In words: MST.

As to `FC(F)(F)Oc1cccc(-c2cnc3ccc(-c4ccncc4)nn23)c1` [C28, 6-(pyridin-4-yl)-3-(3-(trifluoromethoxy)phenyl)imidazo[1,2-b]pyridazine], in the data set with LMTK3 (increasing concentrations of C28, different time points), the “LMTK3 protein levels (Western blot)” value is “time- and dose-dependent degradation of LMTK3”. Further, the “protein levels of ERα (Western blot)” value in the data set on ERα (BC cell lines treated with C28) is “decreased protein levels of ERα”. The “protein levels of HSP90 (Western blot)” value in the data set with HSP90 is recorded as “no effect”. Also, the “protein levels of CDC37 (Western blot)” value in the data set on CDC37 is recorded as “no effect”. Moreover, the “binding to HSP90α (ITC)” value on human HSP90α is listed as “no detectible heat of interaction; also recorded: does not bind to HSP90”. The IC50 in the data set with BC cells lay within 6.5 to 8.64 µM. Also, the inhibition at 10 µM in [1] was above 50%. Further, the “sensitivity of renal cancer cells” value with NCI-60 cell lines is “more sensitive”. The “apoptosis of BC cell lines” value in data set [2] is “triggered apoptosis”. In the data set on MCF12A, the “cell death of nontransformed MCF12A” value was “low percentage of cell death”. For the same molecule, the half-life in “Pharmacokinetics in mice” (ip, 10 mg/kg, T1/2, plasma) is around 59 min; in the data set “Pharmacokinetics in mice” (iv, 5 mg/kg, half-life (T1/2)), around 10 min; in “Pharmacokinetics in mice” (po, 10 mg/kg, T1/2, plasma), around 62 min. Further, the Cmax was 4.3 µM in the data set “Pharmacokinetics in mice” (iv, 5 mg/kg) and 632 ng/mL in “Pharmacokinetics in mice” (po, 10 mg/kg). In addition, the “Ki-67 IHC analysis of tumor sections” value with MMTV-Neu mammary tumors (C28 10 mg/kg) is “decreased proliferation”. For the same molecule, the “LMTK3 expression in tumors (IHC staining)” value with MMTV-Neu mammary tumors (C28 10 mg/kg) is recorded as “reduction of LMTK3 expression”. In addition, in the data set with MMTV-Neu mammary tumors (C28 10 mg/kg oral daily), the “tumor growth compared to the vehicle-treated group” value is recorded as “nearly completely abrogated tumor growth”. The “toxicity (histopathology of tumor, lung, stomach, heart, kidney, liver, spleen)” value in data set [3] is given as “lack of toxicity”. For the same molecule, in the data set on MDA-MB-231 xenografts, the “tumor growth compared to the control group” value is listed as “significantly impeded growth”. The “IRAK4 protein levels (Western blot)” value on IRAK4 is recorded as “degradation”. Besides, on HIPK2, the “HIPK2 protein levels (Western blot)” value is recorded as “degradation”.
With `CCNC(=O)c1noc(-c2cc(C(C)C)c(O)cc2O)c1-c1ccc(CN2CCOCC2)cc1` [NVP-AUY922], the “endogenous LMTK3 protein levels (Western blot)” value in the data set with LMTK3 was “reduction of endogenous LMTK3 protein levels”. The “ERα levels (Western blot)” value with ERα (BC cell lines, HSP90 inhibitor, 72 hours) is “down-regulation of ERα”. For the same molecule, the “HSP70 levels (Western blot)” value with HSP70 is “induction of HSP70”.
For the molecule `COC1=C2C[C@@H](C)C[C@H](OC)[C@H](O)[C@@H](C)/C=C(\C)[C@H](OC(N)=O)[C@@H](OC)/C=C\C=C(/C)C(=O)NC(=CC1=O)C2=O` [geldanamycin], the “endogenous LMTK3 protein levels (Western blot)” value in the data set with LMTK3 is reported as “reduction of endogenous LMTK3 protein levels”. Further, the “HSP70 levels (Western blot)” value in the data set with HSP70 was “induction of HSP70”.

B1: LMTK3 catalytic domain (LMTK3cat; amino acids 134 to 444) (domain or fragment, UniProt Q96Q04 105-415, looked up)
chain: LAEVSLPMPAPQPSHSDMTTPLGLSRQHLSYLQEIGSGWFGKVILGEIFSDYTPAQVVVKELRASAGPLEQRKFISEAQPYRSLQHPNVLQCLGLCVETLPFLLIMEFCQLGDLKRYLRAQRPPEGLSPELPPRDLRTLQRMGLEIARGLAHLHSHNYVHSDLALRNCLLTSDLTVRIGDYGLAHSNYKEDYYLTPERLWIPLRWAAPELLGELHGTFMVVDQSRESNIWSLGVTLWELFEFGAQPYRHLSDEEVLAFVVRQQHVKLARPRLKLPYADYWYDILQSCWRPPAQRPSASDLQLQLTYLLSER
modifications: covalently labeled with a red NHS-647 fluorophore (NT647) for MST
In the case of B1, the equilibrium dissociation constant (Kd) in [4] was 2.21 ± 1.17 µM.

In general, IC50 refers to the midpoint of a concentration-inhibition curve. Broadly, the inhibition is the change of the read-out against control, counted positive when it falls. In general, half-life refers to the time in which the quantity being followed falls by half. The low end stands for fast loss, the high end for slow loss. As usually defined, the Cmax is the maximum level reached in the sampled fluid or tissue. One may read the Kd as the concentration at which binding is half-saturated.

Values taken from paper PMC7673765 (Science Advances, 2020).
